In patent US8883782B2, “Spiro-tetracyclic ring compounds as beta-secretase modulators and methods of use” (Amgen Inc., priority 2010, dated 2014) one finds IC50 and inhibition in vivo data, which are given here for 10 molecules.

Assay [1] deals with Beta Secretase enzyme (BACE) (Homo sapiens, UniProt P56817). Nature of the assay: In vitro enzymatic BACE FRET (fluorescence resonance energy transfer) assay. It counts as biochemical. Particulars: average IC50, enzyme assay; read-out: BACE 1 FRET assay. The procedure, abridged: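 Fluorescence read after Tris quench (pH raised to neutrality) of a one-hour BACE reaction. Buffer: acetate 0.05 M, pH 4.2, with 100 uM genapol and 10% DMSO final; started by adding 50 nM FRET peptide substrate spanning the cleavage site.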

Assay [2] relates to Aβ40 in conditioned medium of cells stably expressing Amyloid Precursor Protein (APP). Nature of the assay: In vitro BACE cell-based assay (Aβ40 in conditioned medium, sandwich ELISA). To be noted: Homo sapiens, HEK293, average IC50; read-out: HEK cell assay. The procedure, abridged:
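The sandwich ELISA pairs pAb40 capture (3 h, 4 °C) with 6E10 detection (2 h, 4 °C) and a streptavidin-europium TRF read-out. Supernatants come from APP-expressing cells grown in 10% FBS DMEM.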
For orientation: An ELISA detects its analyte on a solid surface through an enzyme-linked reagent.

For assay [3], the system named is Abeta 40 in cerebrospinal fluid (CSF) and brain. As to the kind of experiment: In vivo inhibition of beta-secretase (Abeta 40 reduction in CSF and brain). To be noted: rat, after 4 hrs; for inhibition in vivo at 3 mg/kg: Abeta 40, 3 mpk; for inhibition in vivo at 10 mg/kg: Abeta 40, 10 mg/kg (10 mpk).
The mark [4] stands for this setting: CSF, read-out: CSF A-beta reduction % at 3 mpk.
Where [5] appears, read: brain, read-out: Brain A-beta reduction % at 3 mpk.
[6] abbreviates: CSF, read-out: CSF A-beta reduction % at 10 mg/kg.
The mark [7] stands for this setting: brain, read-out: Brain A-beta reduction % at 10 mg/kg.

pIC50: −log10 of the molar value. Read-outs that look alike come from different tables or passages of the source.

Sequence of Beta Secretase enzyme (BACE) (P56817 46-501, species assumed): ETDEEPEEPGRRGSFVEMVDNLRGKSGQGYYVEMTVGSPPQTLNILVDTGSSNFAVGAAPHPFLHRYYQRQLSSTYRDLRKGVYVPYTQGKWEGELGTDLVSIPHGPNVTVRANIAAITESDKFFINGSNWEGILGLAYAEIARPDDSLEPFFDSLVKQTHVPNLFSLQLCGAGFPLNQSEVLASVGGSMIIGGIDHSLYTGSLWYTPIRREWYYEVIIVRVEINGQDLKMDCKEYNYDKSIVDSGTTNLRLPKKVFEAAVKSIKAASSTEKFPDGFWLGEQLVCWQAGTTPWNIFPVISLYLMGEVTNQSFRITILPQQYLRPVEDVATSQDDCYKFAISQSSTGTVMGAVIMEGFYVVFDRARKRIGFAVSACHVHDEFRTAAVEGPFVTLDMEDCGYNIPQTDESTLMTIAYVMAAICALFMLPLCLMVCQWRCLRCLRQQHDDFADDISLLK

Regarding `NC1=N[C@@]2(CS1)c1cc(-c3cccnc3F)ccc1Oc1c2cc(C2=CCOCC2)nc1F` [Example 1001, (S)-3-(3,6-dihydro-2H-pyran-4-yl)-1-fluoro-7-(2-fluoropyridin-3-yl)-5′H-spiro[chromeno[2,3-c]pyridine-5,4′-thiazol]-2′-amine], the pIC50 in assay [1] is 9.52; in assay [2] it was 8.40. For the same molecule, the inhibition in vivo at 3 mg/kg in assay [3] (setting [4]) was determined as 73%; in assay [3] (setting [5]) it was 62%.

`NC1=N[C@@]2(CS1)c1cc(-c3cccnc3F)ccc1Oc1c2cc(C2CCOCC2)nc1F` [Example 1029, (S)-1-fluoro-7-(2-fluoropyridin-3-yl)-3-(tetrahydro-2H-pyran-4-yl)-5′H-spiro[chromeno[2,3-c]pyridine-5,4′-thiazol]-2′-amine]: the pIC50 was 9.40 in assay [1] and 8.15 in assay [2]. For the same molecule, the inhibition in vivo at 10 mg/kg in assay [3] (setting [6]) is 83%; in assay [3] (setting [7]) it was 73%.

Regarding `CC1(C)C=C(c2cc3c(c(F)n2)Oc2ccc(-c4cccnc4F)cc2[C@@]32CSC(N)=N2)CCO1` [Example 1033, (S)-3-(6,6-dimethyl-3,6-dihydro-2H-pyran-4-yl)-1-fluoro-7-(2-fluoropyridin-3-yl)-5′H-spiro[chromeno[2,3-c]pyridine-5,4′-thiazol]-2′-amine], the pIC50 in assay [1] was 6.97; in assay [2], 6.25. For the same molecule, the values for the inhibition in vivo at 3 mg/kg in assay [3] (setting [4]) and in assay [3] (setting [5]) were 60% and 52%, respectively.

Turning to `Cc1cc(-c2cc3c(c(F)n2)Oc2ccc(-c4cccnc4F)cc2[C@@]32CSC(N)=N2)ccn1` [Example 1037, (S)-1-fluoro-7-(2-fluoropyridin-3-yl)-3-(2-methylpyridin-4-yl)-5′H-spiro[chromeno[2,3-c]pyridine-5,4′-thiazol]-2′-amine], the results for the pIC50 in assay [1] and in assay [2] were 8.68 and 7.31, respectively. Moreover, the figures for the inhibition in vivo at 10 mg/kg in assay [3] (setting [6]) and in assay [3] (setting [7]) were 67% and 58%, respectively.

Turning to `CC(C)(F)COc1cc(F)c2c(c1)[C@]1(CSC(N)=N1)c1cc(-c3cccnc3F)ccc1O2` [Example 1067, (S)-4′-fluoro-2′-(2-fluoro-2-methylpropoxy)-7′-(2-fluoropyridin-3-yl)-5H-spiro[thiazole-4,9′-xanthen]-2-amine], the pIC50 was 9.52 in assay [1] and 7.82 in assay [2]. For the same molecule, the inhibition in vivo at 10 mg/kg was 69% in assay [3] (setting [6]) and 55% in assay [3] (setting [7]).

For the molecule `NC1=N[C@@]2(CS1)c1cc(-c3cccnc3F)ccc1Oc1c(F)cc(N3CCC(F)(F)CC3)cc12` [Example 1076, (S)-2′-(4,4-difluoropiperidin-1-yl)-4′-fluoro-7′-(2-fluoropyridin-3-yl)-5H-spiro[thiazole-4,9′-xanthen]-2-amine], the pIC50 was 9.40 in assay [1] and 7.85 in assay [2]. For the same molecule, the inhibition in vivo at 10 mg/kg turned out to be 63% in assay [3] (setting [6]) and 33% in assay [3] (setting [7]).

As for `NC1=N[C@@]2(CS1)c1cc(-c3cccnc3F)ccc1Oc1c(F)cc(N3CCC(F)(F)C3)cc12` [Example 1077, (S)-2′-(3,3-difluoropyrrolidin-1-yl)-4′-fluoro-7′-(2-fluoropyridin-3-yl)-5H-spiro[thiazole-4,9′-xanthen]-2-amine], the pIC50 in assay [1] was 9.52; in assay [2], 8.05. Moreover, the inhibition in vivo at 10 mg/kg in assay [3] (setting [6]) worked out at 69%; in assay [3] (setting [7]) it was 53%.

Turning to `NC1=N[C@@]2(CS1)c1cc(-c3cccnc3F)ccc1Oc1c(F)cc(-c3ncccn3)cc12` [Example 1079, (S)-4′-fluoro-7′-(2-fluoropyridin-3-yl)-2′-(pyrimidin-2-yl)-5H-spiro[thiazole-4,9′-xanthen]-2-amine], the pIC50 in assay [1] was 9.40; in assay [2], 7.92. Besides, the values for the inhibition in vivo at 10 mg/kg in assay [3] (setting [6]) and in assay [3] (setting [7]) were 67% and 54%, respectively.

For the molecule `NC1=N[C@@]2(CS1)c1cc(-c3cccnc3F)ccc1Oc1c(F)cc(-c3cccnc3)cc12` [Example 1083, (S)-4′-fluoro-7′-(2-fluoropyridin-3-yl)-2′-(pyridin-3-yl)-5H-spiro[thiazole-4,9′-xanthen]-2-amine], the results for the pIC50 in assay [1] and in assay [2] were 8.92 and 7.74, respectively. Also, the inhibition in vivo at 10 mg/kg is 66% in assay [3] (setting [6]) and 53% in assay [3] (setting [7]).

With `NC1=N[C@@]2(CS1)c1cc(-c3cccnc3F)ccc1Oc1c(F)cc(N3C[C@@H]4C[C@H]3CO4)cc12` [Example 1084, (S)-2′-((1S,4S)-2-oxa-5-azabicyclo[2.2.1]heptan-5-yl)-4′-fluoro-7′-(2-fluoropyridin-3-yl)-5H-spiro[thiazole-4,9′-xanthen]-2-amine], the pIC50 in assay [1] was 8.12; in assay [2], 6.99. The inhibition in vivo at 10 mg/kg was 67% in assay [3] (setting [6]) and 50% in assay [3] (setting [7]).
